# Assay results as given in PMC9493392, “N-glycosylation modulates enzymatic activity of Trypanosoma congolense trans-sialidase” (The Journal of Biological Chemistry, 2022).
# How the values were obtained:
# H-TconTS1 = system: T1, H-TconTS1; experiment: HPAEC-PAD of […]'-sialyllactose formed, […] min, Michaelis-Menten fit; format: biochemical, Trypanosoma congolense; settings: two biological replicates, purified differently after EndoHf; sialic acid acceptor; donor fetuin (600 μM bound Neu5Ac); 10 mM potassium phosphate pH 7.4, 37 °C; EndoHf-treated hypoglycosylated enzyme
# T1 construct: same polypeptide as P1 (SNAP and Strep tag kept, CHO Lec1 cells), but N-glycans partly removed with EndoHf (16 h), leaving single GlcNAc residues; hypoglycosylated
# TconTS1 = system: T2, TconTS1; experiment: as above; format: biochemical, Trypanosoma congolense; settings: two biological replicates; sialic acid acceptor; donor fetuin (600 μM bound Neu5Ac); 10 mM potassium phosphate pH 7.4, 37 °C; N-glycosylated enzyme
# T2 construct: catalytic plus lectin-like domain; C3 protease site, C-terminal SNAP and Strep tag kept; secreted by CHO Lec1 cells; high-mannose N-glycans; mock-incubated 16 h at 37 °C
smiles,measurement,setting,value
OC[C@H]1O[C@@H](O[C@H]2[C@H](O)[C@@H](O)C(O)O[C@@H]2CO)[C@H](O)[C@@H](O)[C@H]1O (some centres unmarked) [lactose],KM (apparent),H-TconTS1,9.0 and 3.2 mM
same,KM (apparent),TconTS1,1.7 and 2.0 mM
